According to patent US8729088B2, “Toll-like receptor modulators and treatment of diseases” (The Regents of the University of California, priority 2009, dated 2014):
“Also recorded” adds a separate entry of the source.

Legend:
TLR7 [1] = assay: Cytokine induction in BMDM from wild type and TLR7 deficient mice; format: cell-based, mouse; details: BMDM from TLR7 deficient mice
Procedure: In vitro measurements of cytokine induction were performed using the mouse leukemic monocyte macrophage cell line, RAW264.7. […] BMDM were prepared from C57BL/6 and TLR7 deficient mice as described in Wu, C. C et al., (2007) “Immunotherapeutic activity of a conjugate of a Toll-like receptor 7 ligand”, Proc Natl Acad Sci USA 104, 3990-5.
In general, RAW264.7 cells or BMDM were incubated with various concentrations of conjugates for 18 hours at 37° C., 5% CO2 and culture supernatants were collected. The levels of cytokines (IL-6, IL-12 or TNF-α in the supernatants were determined by ELISA (BD Biosciences Pharmingen, La Jolla, Calif.) (Cho, H. J et al., “Immunostimulatory DNA-based vaccines induce cytotoxic lymphocyte activity by a T-helper cell-independent mechanism” [see comments], Nat Biotechnol 18, 509-14 (2000)), and the results presented in FIG. 2A-D. Data are mean±SEM of triplicates and are representative of three independent experiments. Minimum detection levels of these cytokines were 15 pg/mL.

TLR7 [2] = molecular target: T1, TLR7 (Homo sapiens, UniProt Q9NYK1); assay: Cytokine induction in human PBMC, LUMINEX bead assay; format: cell-based; details: 18 hours
T1 construct: endogenous in cells; host or cells: human PBMC from buffy coats (The San Diego Blood Bank)
T1 sequence (Q9NYK1 27-1049): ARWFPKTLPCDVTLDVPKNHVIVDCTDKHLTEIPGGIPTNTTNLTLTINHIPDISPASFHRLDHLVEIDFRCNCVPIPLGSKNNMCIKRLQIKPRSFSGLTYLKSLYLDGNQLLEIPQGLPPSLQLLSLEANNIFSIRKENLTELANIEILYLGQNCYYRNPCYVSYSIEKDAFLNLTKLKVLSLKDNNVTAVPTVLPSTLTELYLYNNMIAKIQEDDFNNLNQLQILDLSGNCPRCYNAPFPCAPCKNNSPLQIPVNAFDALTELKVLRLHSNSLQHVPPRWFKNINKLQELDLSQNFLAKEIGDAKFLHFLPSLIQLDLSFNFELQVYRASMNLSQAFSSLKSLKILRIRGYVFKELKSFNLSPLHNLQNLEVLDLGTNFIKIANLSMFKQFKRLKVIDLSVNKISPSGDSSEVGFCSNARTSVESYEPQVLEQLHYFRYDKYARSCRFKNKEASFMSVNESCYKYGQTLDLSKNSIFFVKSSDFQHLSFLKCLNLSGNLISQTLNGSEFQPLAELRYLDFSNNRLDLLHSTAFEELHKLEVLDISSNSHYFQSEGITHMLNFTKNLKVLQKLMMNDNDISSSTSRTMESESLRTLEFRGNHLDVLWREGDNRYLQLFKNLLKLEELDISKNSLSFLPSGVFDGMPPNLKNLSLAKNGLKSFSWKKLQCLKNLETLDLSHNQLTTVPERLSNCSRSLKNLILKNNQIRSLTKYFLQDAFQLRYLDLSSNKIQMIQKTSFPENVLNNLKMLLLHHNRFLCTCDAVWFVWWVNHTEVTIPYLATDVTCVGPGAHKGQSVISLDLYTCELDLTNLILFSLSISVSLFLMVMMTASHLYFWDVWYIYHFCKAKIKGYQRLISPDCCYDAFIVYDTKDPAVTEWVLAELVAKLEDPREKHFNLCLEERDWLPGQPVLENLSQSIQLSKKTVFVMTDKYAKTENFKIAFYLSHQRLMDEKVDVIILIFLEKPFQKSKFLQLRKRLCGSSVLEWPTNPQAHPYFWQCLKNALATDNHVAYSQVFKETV
Procedure: Human blood peripheral mononuclear cells (PBMC) were isolated from human buffy coats, purchased from The San Diego Blood Bank (San Diego, Calif.), as described in Hayashi, T et al., “Enhancement of innate immunity against Mycobacterium avium infection by immunostimulatory DNA is mediated by indoleamine 2,3-dioxygenase”, Infect Immun 69:6156-64, (2001). PBMC (1×10^6/mL) were incubated with various concentrations of TLR7 conjugates for 18 hours at 37° C., 5% CO2 and culture supernatants were collected. The levels of cytokines (IL-6, TNF-α, or IFNα1) in the supernatants were determined by LUMINEX bead assays (Invitrogen, Carlsbad, Calif.), and the results presented in FIG. 3A-B. Data are mean±SEM of triplicates and are representative of three independent experiments. The minimum detection levels of IL-6, TNF-α, and IFNα1 were 6 pg/mL, 10 pg/mL and 15 pg/mL, respectively.
To further investigate the immunological activities in human cells, human PBMC from three donors were treated with TLR7 conjugates and the levels of IL-6 and IFNa1 were determined by LUMINEX assay (FIG. 3A-B).

[3] = test system: C57BL/6 mice immunized with ovalbumin (OVA); assay: Adjuvanticity: subcutaneous immunization with OVA mixed with TLR7 conjugates; format: in vivo, mouse
Procedure: Each ELISA plate contained a titration of a previously quantitated serum to generate a standard curve. […] The various sera samples were tested at a 1:100 dilution.
Spleenocytes were prepared from the harvested spleens.
The efficiency of adjuvanticity was assessed by measurement of the levels and isotypes of the antigen-specific IgG that the vaccine induces, in particular IgG1 and IgG2 (Mosmann, T. R., and Coffman, R. L., ‘TH1 and TH2 cells: different patterns of lymphokine secretion lead to different functional properties’, Annual Review Immunology 7:145-73 (1989)). The groups of C57BL/6 mice (n=5 animals per group) were subcutaneously immunized with OVA (ovalbumin) mixed with TLR7 conjugates. […] Mice immunized with saline or OVA plus vehicle (0.1% DMSO) were used as negative controls.

Solubility observations = format: physicochemical
C57BL/6 mice [4] = assay: In vivo evaluation of adverse effects of TLR7 conjugates; details: 10 nmoles per mouse with OVA
Procedure: Immunological reaction initiation (e.g. adjuvanticity) by TLR7 conjugates was also examined. Groups (n=5) of C57BL/6 mice were subcutaneously immunized with 20 μg ovalbumin (OVA) mixed with approximately 10 nmol of various TLR7 conjugates, on days 0 and 7, where 10 nmol is a dosage target for the TLR7 portion of the conjugate, and the actual amount will be dependent on the actual chemical formula of each conjugate. […] Sera were collected on days 0, 7, 14, 21, 28, 42 and 56. Mice immunized with saline or OVA mixed with vehicle served as controls. Mice were sacrificed on day 56 and the spleens were harvested for preparation of splenocytes and histological slides. Approximately 200 microliters of a 2.5×10^6/mL spleen cell stock were aliquoted into round-bottom tissue culture microtiter plates in triplicate in a total volume of 200 μl RPMI 1640 complete medium [RPMI1640 (Irvine Scientific, Irvine, Calif.) supplemented with 10% heat-inactivated FCS, 2 mM L-glutamine, and 100 U/mL penicillin/100 μg/mL streptomycin] and restimulated with either 100 μg/mL OVA or medium alone. […] Sections 5 μm thick were stained with hematoxylin and eosin (H&E) and evaluated under the microscope. […]
Therefore, as part of the experimental protocol, body weight and skin reaction (at site of injection) of the mice immunized, with lipid-TLR7 agonist conjugates, was monitored. […]

[5] = test system: pro-inflammatory cytokines (IL-6, TNF-α) in sera; assay: In vivo kinetics of pro-inflammatory cytokine induction after intravenous injection; design: species or system mouse
Procedure: The pharmacokinetics of pro inflammatory cytokine induction by TLR7 conjugates was examined using 6- to 8-week old C57BL/6 mice. […] Blood samples were collected 2, 4, 6, 24 or 48 hours after injections. Sera were separated and kept at −20° C. until use.

C57BL/6 mice [6] = assay: Serum transferred arthritis (K/BxN serum); format: in vivo, mouse
Procedure: The anti-inflammatory efficacy of TLR7 agonist-PEG conjugates was tested in mouse models of human inflammatory diseases (serum transfer arthritis, experimental allergic encephalomyelitis (EAE) (see above), and thioglycollate induced peritonitis).

With `CCCCCCCC/C=C\CCCCCCCC(=O)OCC(COP(=O)(O)OCCNC(=O)c1ccc(Cn2c(=O)[nH]c3c(N)nc(OCCOC)nc32)cc1)OC(=O)CCCCCCC/C=C\CCCCCCCC` (centres unmarked) [Compound 6, 2-(4-((6-amino-2-(2-methoxyethoxy)-8-oxo-7H-purin-9(8H)-yl)methyl)benzamido)ethyl 2,3-bis(oleoyloxy)propyl phosphate] the “IL-12 and IL-6 induction” value (TLR7 [1]) was “little or no IL-12 and IL-6”, the “order of TLR7 conjugate potency” value (TLR7 [2]) was “(4b)>(6)>(9)>/=SM>(8)” and the “onset of induction of anti-OVA antibodies” value ([3]; OVA mixed with conjugate, s.c., days 0 and 7) was 14 days. The “OVA-specific IFNγ secretion by spleen cells” value ([3]; day 56 splenocytes restimulated with OVA) was “enhanced”, the “anti-OVA IgG2a levels” value ([3]; serum, ELISA, days 0-56) was “continuously increased; also recorded: rapid elevation; also recorded: sustained and further accelerated levels” and the “dissolution in suitable solvents for testing” value (Solubility observations) was “difficulty in dissolution”. For the same molecule, the “average body weights versus mice injected saline” value (C57BL/6 mice [4]) was “No significant differences”.

For `COCCOc1nc(N)c2nc(O)n(Cc3ccc(C(=O)NCCOCCOCCOCCOCCOCCOCCOCCOCCOCCOCCn4cc(CCC(=O)O)nn4)cc3)c2n1` [Compound 8, 3-(1-(1-(4-((6-amino-8-hydroxy-2-(2-methoxyethoxy)-9H-purin-9-yl)methyl)phenyl)-1-oxo-5,8,11,14,17,20,23,26,29,32-decaoxa-2-azatetratriacontan-34-yl)-1H-1,2,3-triazol-4-yl)propanoic acid], the “IL-12 and IL-6 induction” value (TLR7 [1]) was “little or no IL-12 and IL-6”, the “order of TLR7 conjugate potency” value (TLR7 [2]) was “(4b)>(6)>(9)>/=SM>(8)” and the “IL-6 induction in serum” value ([5]; 200 nmol per animal i.v.) was “only a low level”. For the same molecule, the “TNFα induction in serum” value ([5]; 200 nmol per animal i.v., any point post injection) was “no significant induction”, the “IL-6 or TNFα stimulating activity” value ([5]; FIGS. 4A-B) was “little or no IL-6 or TNFα stimulating activity” and the antagonistic activity ([5]; concluded from FIGS. 4A-B, 7A-B and 8) was “antagonistic activity under certain conditions”. The paw swelling (C57BL/6 mice [6]; daily gavage) was “reduced paw swelling”, the paw swelling (C57BL/6 mice [6]; daily subcutaneous injection) was “reduced paw swelling” and the “solubility in aqueous solution” value (Solubility observations) was “improves dramatically”.

For `CCCCCCCC/C=C\CCCCCCCC(=O)OCC(COP(=O)(O)OCCNC(=O)CCc1cn(CCOCCOCCOCCOCCOCCOCCOCCOCCOCCOCCNC(=O)c2ccc(Cn3c(O)nc4c(N)nc(OCCOC)nc43)cc2)nn1)OC(=O)CCCCCCC/C=C\CCCCCCCC` (centres unmarked) [Compound 9, 2-(3-(1-(1-(4-((6-amino-8-hydroxy-2-(2-methoxyethoxy)-9H-purin-9-yl)methyl)phenyl)-1-oxo-5,8,11,14,17,20,23,26,29,32-decaoxa-2-azatetratriacontan-34-yl)-1H-1,2,3-triazole-4-yl)propanamido)ethyl 2,3-bis(oleoyloxy)propyl phosphate], the “IL-12 and IL-6 induction” value (TLR7 [1]) was “little or no IL-12 and IL-6”, the “order of TLR7 conjugate potency” value (TLR7 [2]) was “(4b)>(6)>(9)>/=SM>(8)” and the “Th1 response (IgG2a levels)” value ([3]; mouse, in vivo) was “minimal Th1 response”. For the same molecule, the “Th2 immune response (IgG1 levels)” value ([3]; mouse, in vivo) was “induce a Th2 immune response”.
